Assay results as given in patent publication US9850283B2, “Macrocyclic inhibitors of the PD-1/PD-L1 and CD80(B7-1)/PD-L1 protein/protein interactions” (BRISTOL-MYERS SQUIBB COMPANY, priority 2013, dated 2017).
pIC50: −log10 of the molar value. Where two headings read alike, the source gives them in different places. Starred links: 1 amine or outer side, 2 acyl side, 3 side chain; linkers in the order of their positions; H or OH if unused. Positions of bridges follow the written chain, without caps; N, C: chain ends. Non-standard residues stand in square brackets, D forms with d. Residues, ends and D or L forms follow the SMILES beside them. ξ: configuration not given here. X8 = COc1cccc(-c2[nH]c3ccccc3c2C[C@H](N[*:1])C(=O)[*:2])c1; Ala(indol-4-yl) = N[C@@H](Cc1cccc2[nH]ccc12)C(=O)O; Pro(4,4-F2) = O=C(O)[C@@H]1CC(F)(F)CN1; Bta = N[C@@H](Cc1csc2ccccc12)C(=O)O; Hyp = O=C(O)[C@@H]1C[C@@H](O)CN1; NMeF = CN[C@@H](Cc1ccccc1)C(=O)O; 4Pal = N[C@@H](Cc1ccncc1)C(=O)O; dNMeE = CN[C@H](CCC(=O)O)C(=O)O; NMeNle = CCCC[C@H](NC)C(=O)O; NMeS = CN[C@@H](CO)C(=O)O; dPip = O=C(O)[C@H]1CCCCN1; ξR = N=C(N)NCCCC(N)C(=O)O; NMeA = CN[C@@H](C)C(=O)O; Orn = NCCC[C@H](N)C(=O)O; Dap = NC[C@H](N)C(=O)O; ξC = NC(CS)C(=O)O; Sar = CNCC(=O)O

Key:
Human PD-L1/PD-1 = molecular target: T1, Human PD-L1/PD-1 (Homo sapiens, UniProt Q9NZQ7); test: HTRF PD-1-Ig/PD-L1-His binding assay (human PD-L1); details: cluster symbol; read-out: HTRF IC50 cluster
T1 construct: made in house; host or cells: HEK293T
T1 sequence (Q9NZQ7 with tags, fused parts or gaps): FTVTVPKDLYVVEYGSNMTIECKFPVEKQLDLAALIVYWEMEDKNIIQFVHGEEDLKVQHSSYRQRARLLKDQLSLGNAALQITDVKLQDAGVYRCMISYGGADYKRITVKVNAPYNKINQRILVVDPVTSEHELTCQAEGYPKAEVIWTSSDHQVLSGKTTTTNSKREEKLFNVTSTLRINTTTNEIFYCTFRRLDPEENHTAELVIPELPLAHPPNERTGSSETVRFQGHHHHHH
Method in brief: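 The time-resolved fluorescence signal comes from Eu-cryptate anti-Ig (1 nM) and APC anti-His (20 nM) antibodies bound to a PD-1-Ig/PD-L1-His complex. Both partners lack transmembrane regions.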

[1] = molecular target: T2, LK35.2-hPD-L1 cells / PE-labeled PD-1-Ig (Homo sapiens, UniProt Q9NZQ7); test: LK35.2-hPD-L1 cell binding high-content screening assay; format: cell-based; details: cluster symbol, read-out: CBA IC50 cluster
T2 construct: expressed in transfected cells; host or cells: LK35.2 mouse B cell line
T2 sequence (Q9NZQ7 19-290): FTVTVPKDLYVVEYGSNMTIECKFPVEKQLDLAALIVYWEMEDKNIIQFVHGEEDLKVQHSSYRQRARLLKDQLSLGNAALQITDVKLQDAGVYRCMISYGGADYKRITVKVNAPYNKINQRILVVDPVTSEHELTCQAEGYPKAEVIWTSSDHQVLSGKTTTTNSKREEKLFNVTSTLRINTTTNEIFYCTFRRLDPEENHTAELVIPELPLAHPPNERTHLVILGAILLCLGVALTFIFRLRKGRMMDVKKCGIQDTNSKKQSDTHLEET
Method in brief: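 Readout: high-content imaging of PE-PD-1-Ig bound to LK35.2-hPD-L1 cells. Cells plated overnight (RPMI/10% FCS); compound + 1 nM PE-PD-1-Ig, 1 h, 37 °C; 3× dPBS wash before imaging.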

[2] = cell line of CBA not given (LK35.2-hPD-L1 or 293T-hPD-L1)
[3] = cell binding assay, cell line not given

| pIC50 (Human PD-L1/PD-1) | pIC50 [1, 2] | pIC50 [1, 3] | SMILES |
| --- | --- | --- | --- |
| 7.52 to 8.17 | < 7.13 |  | CCCC[C@H]1C(=O)N(C)[C@@H](CCCC)C(=O)N[C@@H](CCCNC(=N)N)C(=O)N[C@H](C(=O)NCC(N)=O)CSCC(=O)N[C@@H](Cc2ccccc2)C(=O)N(C)[C@@H](C)C(=O)N[C@@H](CC(N)=O)C(=O)N2CCC[C@H]2C(=O)N[C@@H](CCCCN)C(=O)N[C@@H](CC(C)C)C(=O)N(C)CC(=O)N[C@@H](Cc2c[nH]c3ccccc23)C(=O)N[C@@H](CO)C(=O)N[C@@H](Cc2c[nH]c3ccccc23)C(=O)N1C [Example 1077] ({CH2CO}-F[NMeA]NPKL[Sar]WSW[NMeNle][NMeNle]RCG-NH2; thioether N-14) |
| 7.52 to 8.17 | 8.33 to 9.80 |  | CCCC[C@H]1C(=O)N(C)[C@@H](CCCC)C(=O)N[C@@H](CCCNC(=N)N)C(=O)N[C@H](C(=O)NCC(N)=O)CSCC(=O)N[C@@H](Cc2ccc(O)cc2)C(=O)N(C)[C@@H](C)C(=O)N[C@@H](CC(N)=O)C(=O)N2CCC[C@H]2C(=O)N[C@@H](Cc2cnc[nH]2)C(=O)N[C@@H](CC(C)C)C(=O)N2C[C@H](O)C[C@H]2C(=O)N[C@@H](Cc2c[nH]c3ccccc23)C(=O)N[C@@H](CCCN)C(=O)N[C@@H](Cc2c[nH]c3ccccc23)C(=O)N1C [Example 1133] ({CH2CO}-Y[NMeA]NPHL[Hyp]W[Orn]W[NMeNle][NMeNle]RCG-NH2; thioether N-14) |
| < 7.52 | < 7.13 |  | CCCC[C@H]1C(=O)N(C)[C@@H](CCCC)C(=O)N[C@@H](CCCNC(=N)N)C(=O)N[C@H](C(=O)NCC(N)=O)CSCC(=O)N[C@@H](Cc2ccccc2)C(=O)N(C)[C@@H](C)C(=O)N[C@@H](CC(N)=O)C(=O)N2CCC[C@H]2C(=O)N[C@@H](CC(N)=O)C(=O)N[C@@H](CC(C)C)C(=O)N(C)CC(=O)N[C@@H](Cc2c[nH]c3ccccc23)C(=O)N[C@@H](CO)C(=O)N[C@@H](Cc2c[nH]c3ccccc23)C(=O)N1C [Example 1063] ({CH2CO}-F[NMeA]NPNL[Sar]WSW[NMeNle][NMeNle]RCG-NH2; thioether N-14) |
| < 7.52 | < 7.13 |  | CCCC[C@H]1C(=O)N(C)[C@@H](CCCC)C(=O)N[C@@H](CCCNC(=N)N)C(=O)N[C@H](C(=O)NCC(N)=O)CSCC(=O)N[C@@H](Cc2ccccc2)C(=O)N(C)[C@@H](C)C(=O)N[C@@H](CC(N)=O)C(=O)N2CC(F)(F)C[C@H]2C(=O)N[C@@H](Cc2cnc[nH]2)C(=O)N[C@@H](CC(C)C)C(=O)N(C)CC(=O)N[C@@H](Cc2c[nH]c3ccccc23)C(=O)N[C@@H](CO)C(=O)N[C@@H](Cc2c[nH]c3ccccc23)C(=O)N1C [Example 1112] ({CH2CO}-F[NMeA]N[Pro(4,4-F2)]HL[Sar]WSW[NMeNle][NMeNle]RCG-NH2; thioether N-14) |
| < 7.52 | < 7.13 |  | C=CCCCCC[C@H]1C(=O)N(C)[C@@H](CCCCCC=C)C(=O)N[C@@H](CCCNC(=N)N)C(=O)N[C@H](C(=O)NCC(N)=O)CSCC(=O)N[C@@H](Cc2ccccc2)C(=O)N(C)[C@@H](C)C(=O)N[C@@H](CC(N)=O)C(=O)N2CCC[C@H]2C(=O)N[C@@H](Cc2cnc[nH]2)C(=O)N[C@@H](CC(C)C)C(=O)N(C)CC(=O)N[C@@H](Cc2c[nH]c3ccccc23)C(=O)N[C@@H](CO)C(=O)N[C@@H](Cc2c[nH]c3ccccc23)C(=O)N1C [Example 1047] |
| 7.52 to 8.17 | 8.33 to 9.80 |  | CCCC[C@H]1C(=O)N(C)[C@@H](CCCC)C(=O)N[C@@H](CCCNC(=N)N)C(=O)N[C@H](C(=O)NCC(N)=O)CSCC(=O)N[C@@H](Cc2ccc(O)cc2)C(=O)N(C)[C@@H](C)C(=O)N[C@@H](CC(N)=O)C(=O)N2CCC[C@H]2C(=O)N[C@@H](Cc2cnc[nH]2)C(=O)N[C@@H](CC(C)C)C(=O)N2CC(F)(F)C[C@H]2C(=O)N[C@@H](Cc2c[nH]c3ccccc23)C(=O)N[C@@H](CO)C(=O)N[C@@H](Cc2c[nH]c3ccccc23)C(=O)N1C [Example 1126] |
| < 7.52 |  | 7.14 to 8.32 | CCCC[C@H]1C(=O)N(C)[C@@H](CCCC)C(=O)N[C@@H](CCCNC(=N)N)C(=O)N[C@H](C(=O)NCC(N)=O)CSCC(=O)N[C@@H](Cc2ccncc2)C(=O)N(C)[C@@H](C)C(=O)N[C@@H](CC(N)=O)C(=O)N2CCC[C@H]2C(=O)N[C@@H](Cc2cnc[nH]2)C(=O)N[C@@H](CC(C)C)C(=O)N2C[C@H](O)C[C@H]2C(=O)N[C@@H](Cc2c[nH]c3ccccc23)C(=O)N[C@@H](CO)C(=O)N[C@@H](Cc2c[nH]c3ccccc23)C(=O)N1C [Example 7029] ({CH2CO}-[4Pal][NMeA]NPHL[Hyp]WSW[NMeNle][NMeNle]RCG-NH2; thioether N-14) |

The next lines start with the compound.

| SMILES | pIC50 (Human PD-L1/PD-1) | pIC50 [1, 2] | pIC50 [1, 3] |
| --- | --- | --- | --- |
| CCCC[C@H]1C(=O)N(C)[C@@H](COCC)C(=O)N[C@@H](CCCNC(=N)N)C(=O)NC(C(=O)NCC(N)=O)CSCC(=O)N[C@@H](Cc2ccc(O)cc2)C(=O)N(C)[C@@H](C)C(=O)N[C@@H](CC(N)=O)C(=O)N2CCC[C@H]2C(=O)N[C@@H](Cc2cnc[nH]2)C(=O)N[C@@H](CC(C)C)C(=O)N2CCC[C@H]2C(=O)N[C@@H](Cc2c[nH]c3ccccc23)C(=O)N[C@@H](CO)C(=O)N[C@@H](Cc2c[nH]c3ccccc23)C(=O)N1C (stereo partly shown) [Example 9041] ({CH2CO}-Y[NMeA]NPHLPWSW[NMeNle][NMeS](Et)R[ξC]G-NH2; thioether N-14) | 8.17 to 9.41 |  | 8.33 to 9.80 |
| CCCC[C@H]1C(=O)N(C)CC(=O)N[C@@H](CC(=O)O)C(=O)N[C@@H](C(C)C)C(=O)N(C)[C@@H](Cc2ccccc2)C(=O)N[C@@H](Cc2cccc3[nH]ccc23)C(=O)N(C)CC(=O)N[C@@H](Cc2c[nH]c3ccccc23)C(=O)N[C@@H](Cc2ccc(O)cc2)C(=O)N[C@@H](CC(C)C)C(=O)N[C@H](C(=O)NCC(N)=O)CSCC(=O)N[C@@H](Cc2ccccc2)C(=O)N(C)[C@@H](Cc2ccccc2)C(=O)N1C [Example 3110] ({CH2CO}-F[NMeF][NMeNle][Sar]DV[NMeF][Ala(indol-4-yl)][Sar]WYLCG-NH2; thioether N-13) | 7.52 to 8.17 | 8.33 to 9.80 |  |
| CCCC[C@H]1C(=O)N(C)[C@@H](CCCC)C(=O)N[C@@H](CCCNC(=N)N)C(=O)N[C@H](C(=O)NCC(N)=O)CSCC(=O)N[C@@H](Cc2ccc(O)cc2)C(=O)N(C)[C@@H](C)C(=O)N[C@@H](CC(N)=O)C(=O)N2CCC[C@H]2C(=O)N[C@@H](CN)C(=O)N[C@@H](CCC(N)=O)C(=O)N2C[C@H](O)C[C@H]2C(=O)N[C@@H](Cc2c[nH]c3ccccc23)C(=O)N[C@@H](CO)C(=O)N[C@@H](Cc2csc3ccccc23)C(=O)N1C [Example 6023] ({CH2CO}-Y[NMeA]NP[Dap]Q[Hyp]WS[Bta][NMeNle][NMeNle]RCG-NH2; thioether N-14) | 7.52 to 8.17 |  | 8.33 to 9.80 |
| CCCC[C@H]1C(=O)N(C)[C@H](CCC(=O)O)C(=O)N[C@@H](CC(N)=O)C(=O)N[C@@H](C(C)C)C(=O)N(C)[C@@H](Cc2ccccc2)C(=O)N[C@@H](Cc2ccc(O)cc2)C(=O)N2CCCC[C@@H]2C(=O)N[C@@H](Cc2c[nH]c3ccccc23)C(=O)N[C@@H](Cc2ccc(O)cc2)C(=O)N[C@@H](CCCCN)C(=O)N[C@H](C(=O)NCC(N)=O)CSCC(=O)N[C@@H](Cc2ccccc2)C(=O)N(C)[C@@H](Cc2ccccc2)C(=O)N1C [Example 3593] ({CH2CO}-F[NMeF][NMeNle][dNMeE]NV[NMeF]Y[dPip]WYKCG-NH2; thioether N-13) | 8.17 to 9.41 |  | 8.33 to 9.80 |
| CCCC[C@H]1C(=O)N(C)[C@@H](CCCC)C(=O)NC(CCCNC(=N)N)C(=O)N[C@H](C(=O)NCC(N)=O)CSCC(=O)N[C@@H](Cc2ccc(O)cc2)C(=O)N(C)[C@@H](C)C(=O)N[C@@H](CC(N)=O)C(=O)N2CCC[C@H]2C(=O)N[C@@H](CN)C(=O)N[C@@H](CC(C)C)C(=O)N2C[C@H](O)C[C@H]2C(=O)N[C@@H](Cc2c[nH]c3ccccc23)C(=O)N[C@@H](CO)C(=O)N[C@@H](Cc2c(-c3cccc(OC)c3)[nH]c3ccccc23)C(=O)N1C (stereo partly shown) [Example 7003] ({CH2CO}-Y[NMeA]NP[Dap]L[Hyp]WS[X8][NMeNle][NMeNle][ξR]CG-NH2; thioether N-14) | 8.17 to 9.41 |  | 7.14 to 8.32 |
| CCCC[C@H]1C(=O)N[C@@H](C)C(=O)NC(C(=O)NCC(N)=O)CSCC(=O)N[C@@H](Cc2ccc(O)cc2)C(=O)N(C)[C@@H](C)C(=O)N[C@@H](CC(N)=O)C(=O)N2CCC[C@H]2C(=O)N[C@@H](CN)C(=O)N[C@@H](CC(C)C)C(=O)N2C[C@H](O)C[C@H]2C(=O)N[C@@H](Cc2c[nH]c3ccccc23)C(=O)N[C@@H](CO)C(=O)N[C@@H](Cc2c[nH]c3ccccc23)C(=O)N(C)[C@@H](CCSC)C(=O)N1C (stereo partly shown) [Example 9095] | 8.17 to 9.41 |  | 7.14 to 8.32 |
| CCCC[C@H]1C(=O)N(C)CC(=O)N[C@@H](CC(=O)O)C(=O)N[C@@H](C(C)C)C(=O)N(C)[C@@H](Cc2ccccc2)C(=O)N[C@@H](Cc2ccc(O)cc2)C(=O)N(C)CC(=O)N[C@@H](Cc2c[nH]c3ccccc23)C(=O)N[C@@H](Cc2ccc(O)cc2)C(=O)N[C@@H](CC(C)C)C(=O)N[C@H](C(=O)NCC(N)=O)CSCC(=O)N(C)[C@@H](Cc2ccccc2)C(=O)N1C [Example 3052] (HELM PEPTIDE1{[O=C(C[*:3])[*:2]].[meF].[CCCC[C@@H](C(=O)[*:2])N(C)[*:1]].[Sar].D.V.[meF].Y.[Sar].W.Y.L.C.G.[am]}$PEPTIDE1,PEPTIDE1,1:R3-13:R3$$$V2.0) | < 7.52 | < 7.13 |  |
